# Assay results from patent US20160143884A1, “USE OF TETRAHYDROINDAZOLYLBENZAMIDE AND TETRAHYDROINDOLYLBENZAMIDE DERIVATIVES FOR THE TREATMENT OF HUMAN IMMUNODEFICIENCY VIRUS (HIV) AND ACQUIRED IMMUNE DEFICIENCY SYNDROME (AIDS)” (Esanex, Inc., priority 2014, published 2016).
# Experiments:
# [1] = Cell viability (CellTiter 96 AQueous One) in HepG2 2.2.15; assay type: cell-based; conditions: human, HepG2-2.2.15 cells, read-out: Cytotoxicity TC50
# Description: The anti-HBV assay employed real-time qPCR (TaqMan) to directly measure extracellular HBV DNA copy number. HepG2-2.2.15 cells were plated in 96-well microtiter plates. Only the interior wells were utilized to reduce “edge effects” observed during cell culture; the exterior wells were filled with complete medium to help minimize sample evaporation. After 16-24 hours the confluent monolayer of HepG2-2.2.15 cells was washed and the medium replaced with complete medium containing various concentrations of a test compound in triplicate. 3TC was used as positive control, while media alone was added to cells as negative control (virus control, VC). Three days later the culture medium was replaced with fresh medium containing the appropriately diluted drug. Six days following the initial administration of the test compound, the cell culture supernatant collected, treated with pronase and then used in a real-time quantitative TaqMan qPCR assay. The PCR-amplified HBV DNA was detected in real-time by monitoring increases in fluorescence signals that result from the exonucleolytic degradation of a quenched fluorescent probe molecule that hybridizes to the amplified HBV DNA. […] Antiviral activity was calculated from the reduction in HBV DNA levels (IC50). […] The therapeutic index (TI) was calculated as TC50/IC50.
# SIVmac251 virus = assay: SIV inhibition in NHP PBMC, p27 antigen capture assay; assay type: cell-based; conditions: 0.0005 to 50 μM
# Description: Non-human primate (NHP) cells were activated in IL-2 growth medium (GM) containing PHA-P at a concentration of 10 μg/ml for 24 hrs. The next day cells were washed and re-suspended in fresh IL-2 GM. Compound 9 was serially diluted at concentrations ranging from 0.0005 to 50 μM in a 96 well u-bottom plate containing IL-2 GM. Activated cells were then added to the wells of the plate. SIVmac251 virus, diluted 1:25 in IL-2 GM, was subsequently added to the appropriate wells containing the compounds of interest and the cells except for controls. This virus represents the same virus preparation utilized for infection of the animals. The plate was then incubated overnight and, after extensive washing the next day, the plate was then placed back in the incubator at 37° C., 5% CO2.
# On day 4-5, of the assay, supernatants were harvested and a SIV p27 antigen capture assay was used to detect SIV p27 in the supernatant. […] The percentage of inhibition in each experiment is reported in FIGS. 3b and 3c for test 1 and 2, respectively.
# HIV-1Ba-L = assay: Anti-HIV efficacy evaluation in fresh human PBMCs (reverse transcriptase activity readout); assay type: cell-based
# Description: Anti-HIV Efficacy Evaluation in Fresh Human PBMCs Assay Protocol:
# Fresh human PBMCs, seronegative for HIV and HBV, are isolated from screened donors (Biological Specialty Corporation, Colmar, Pa.). Cells are pelleted/washed 2-3 times by low speed centrifugation and re-suspension in PBS to remove contaminating platelets. […] Banded PBMCs are gently aspirated from the resulting interface and subsequently washed 2× with PBS by low speed centrifugation. […] The cells are allowed to incubate for 48-72 hours at 37° C. […] IL-2 is included in the culture medium to maintain the cell division initiated by the PHA mitogenic stimulation. PBMCs are maintained in this medium at a concentration of 1-2×10^6 cells/mL with biweekly medium changes until used in the assay protocol. Cells are kept in culture for a maximum of two weeks before being deemed too old for use in assays and discarded. MDMs are depleted from the culture as the result of adherence to the tissue culture flask.
# For the standard PBMC assay, PHA stimulated cells from at least two normal donors are pooled (mixed together), diluted in fresh medium to a final concentration of 1×10^6 cells/mL, and plated in the interior wells of a 96 well round bottom microplate at 50 uL/well (5×10^4 cells/well) in a standard format developed by the Infectious Disease Research department of Southern Research Institute. Pooling (mixing) of mononuclear cells from more than one donor is used to minimize the variability observed between individual donors, which results from quantitative and qualitative differences in HIV infection and overall response to the PHA and IL-2 of primary lymphocyte populations. Each plate contains virus/cell control wells (cells plus virus), experimental wells (drug plus cells plus virus) and compound control wells (drug plus media without cells, necessary for MTS monitoring of cytotoxicity). […] Therefore, infected wells are used in the assessment of both antiviral activity and cytotoxicity. Test drug dilutions are prepared at a 2× concentration in microtiter tubes and 100 μL of each concentration (nine total concentrations) are placed in appropriate wells using the standard format. 50 μL of a predetermined dilution of virus stock is placed in each test well (final MOI˜=0.1). The PBMC cultures are maintained for seven days following infection at 37° C., 5% CO2. After this period, cell-free supernatant samples are collected for analysis of reverse transcriptase activity and/or p24 antigen content. Following removal of supernatant samples, compound cytotoxicity is measured by addition of MTS to the plates for determination of cell viability. Wells are also examined microscopically and any abnormalities are noted.
# Reverse Transcriptase Activity Assay Protocol:
# Tritiated thymidine triphosphate (^3H-TTP, 80 Ci/mmol, NEN) is received in 1:1 dH2O:Ethanol at 1 mCi/mL. Poly rA:oligo dT template:primer (GE Healthcare) is prepared as a stock solution by combining 150 μL poly rA (20 mg/mL) with 0.5 mL oligo dT (20 units/mL) and 5.35 mL sterile dH2O followed by aliquoting (1.0 mL) and storage at −20° C. The RT reaction buffer is prepared fresh on a daily basis and consists of 125 μL 1.0 M EGTA, 125 μL dH2O, 125 μL 20% Triton X100, 50 μL 1.0 M Tris (pH 7.4), 50 μL 1.0 M DTT, and 40 μL 1.0 M MgCl2. The final reaction mixture is prepared by combining 1 part ^3H-TTP, 4 parts dH2O, 2.5 parts poly rA:oligo dT stock and 2.5 parts reaction buffer. Ten microliters of this reaction mixture is placed in a round bottom microtiter plate and 15 μL of virus containing supernatant is added and mixed. The plate is incubated at 37° C. for 60 minutes. Following incubation, the reaction volume is spotted onto DE81 filter-mats (Wallac), washed 5 times for 5 minutes each in a 5% sodium phosphate buffer or 2×SSC (Life Technologies).
# Hepatitis B Virus (HBV) = assay: Anti-HBV assay, real-time qPCR of extracellular HBV DNA in HepG2 2.2.15; assay type: cell-based
# Description: The anti-HBV assay employed real-time qPCR (TaqMan) to directly measure extracellular HBV DNA copy number. HepG2-2.2.15 cells were plated in 96-well microtiter plates. Only the interior wells were utilized to reduce “edge effects” observed during cell culture; the exterior wells were filled with complete medium to help minimize sample evaporation. After 16-24 hours the confluent monolayer of HepG2-2.2.15 cells was washed and the medium replaced with complete medium containing various concentrations of a test compound in triplicate. 3TC was used as positive control, while media alone was added to cells as negative control (virus control, VC). Three days later the culture medium was replaced with fresh medium containing the appropriately diluted drug. Six days following the initial administration of the test compound, the cell culture supernatant collected, treated with pronase and then used in a real-time quantitative TaqMan qPCR assay. The PCR-amplified HBV DNA was detected in real-time by monitoring increases in fluorescence signals that result from the exonucleolytic degradation of a quenched fluorescent probe molecule that hybridizes to the amplified HBV DNA. For each PCR amplification, a standard curve was simultaneously generated using dilutions of purified HBV DNA. Antiviral activity was calculated from the reduction in HBV DNA levels (IC50). CellTiter 96® AQueous One Solution Cell Proliferation Assay kit (Promega) was employed to measure cell viability which was used to calculate cytotoxicity (TC50). The therapeutic index (TI) was calculated as TC50/IC50.
# [2] = test system: VSVg-pseudotyped NL4-3.Luc.E-R- virus; assay: microbe, parasite or virus in culture; assay type: cell-based, HIV-1; conditions: Human immunodeficiency virus 1, NL43, SUP-T1, read-out: EC50 of inhibition of HIV replication
smiles,measurement,setting,value
"CC1(C)CC(=O)c2c(C(F)(F)F)nn(-c3ccc(C(N)=O)c(N[C@H]4CC[C@H](O)CC4)c3)c2C1 [Compound 9, 4-(6,6-Dimethyl-4-oxo-3-trifluoromethyl-4,5,6,7-tetrahydro-indazol-1-yl)-2-(trans-4-hydroxy-cyclohexylamino)-benzamide]",CC50 at 6 days,[1],73 nM
same,Amount of p27 in the supernatant of the cultures,SIVmac251 virus,dose-dependent reduction
same,IC 95% (95% inhibition of virus replication),HIV-1Ba-L; HIV-1Ba-L in PBMCs,11 nM
same,Selectivity Index TI (TC50/IC50),"HIV-1Ba-L; HIV-1Ba-L in PBMCs, 50%",1.5
same,Selectivity index (TI) 90%,"HIV-1Ba-L; HIV-1Ba-L in PBMCs, TC90/IC90",>22.1
same,Selectivity index (TI) 95%,"HIV-1Ba-L; HIV-1Ba-L in PBMCs, TC95/IC95",>18.2
same,IC50,"HIV-1Ba-L; Human immunodeficiency virus 1, PBMC, 168 h, read-out: Antiviral Activity IC50 (50% inhibition of virus replication), HIV-1Ba-L in PBMCs, seven days",20 nM
same,IC90,"HIV-1Ba-L; Human immunodeficiency virus 1, PBMC, read-out: IC 90% (90% inhibition of virus replication)",90 nM
same,Activity against hepatitis B virus (in words),Hepatitis B Virus (HBV),inactive
same,Selectivity Index TI (TC50/IC50),Hepatitis B Virus (HBV); HBV in HepG2 2.2.15,0.12
same,IC50,"Hepatitis B Virus (HBV); Hepatitis B virus, 144 h, HBV in HepG2 2.2.15, six days, read-out: Antiviral Activity IC50 (reduction in HBV DNA levels)",600 nM
same,IC90,"Hepatitis B Virus (HBV); Hepatitis B virus, HBV in HepG2 2.2.15",> 2000 nM
same,EC50,[2],10 nM
